35 molecules from patent publication US20110124888A1, “STYRYLBENZOFURAN DERIVATIVES AS INHIBITORS FOR BETA-AMYLOID FIBRIL FORMATION AND PREPARATION METHOD THEREOF” (Korea Institute of Science and Technology, priority 2008, published 2011) can be followed below.

The experiment addresses T1, beta-amyloid 42 (Aβ42) (Homo sapiens, UniProt P05067).
T1 construct: Beta-amyloid 42 (Aβ42) was dissolved in dimethylsulfoxide (DMSO)
Nature of the experiment: Inhibitory effect on the formation of beta-amyloid fibrils in vitro (ThT fluorescence assay). It is filed as biochemical. As to conditions: for pIC50: In vitro ThT analysis (Aβ42: 25 μM); for % inhibition against the beta-amyloid 42 formation compared with curcumin: Tables 1 to 6, relative to curcumin; for inhibition at 10 µM: read-out: % Inhibition (10 μM). The procedure: In order to investigate the inhibitory effect on the formation of beta-amyloid fibrils, the inventive compounds were examined as follows:
Beta-amyloid 42 (Aβ42) was dissolved in dimethylsulfoxide (DMSO) to form a […] Aβ42 stock solution. In addition, ThT (thioflavin T) was dissolved in distilled water to a concentration of 1 mM and subsequently diluted with 50 mM glycin buffer (pH 8.5) to yield a 5 μM ThT stock solution.
45 μL of PBS (phosphate buffer saline, pH 7.4) was added to each of a 96 well fluorescence microplate (white, F-bottom). 5 μL of the 250 μM Aβ42 stock solution was added to each well. The final concentration of each compound obtained in Examples was in a range of 10 to 0.001 μM by adding 2 μL of a solution, which is prepared by dissolving the subject compounds obtained in Examples in DMSO, to each well. At this time, the final concentration of Aβ42 in each well was 25 μM. The plate was then incubated at room temperature for 1 hr, and 150 μL of the 5 μM ThT stock solution was added to each well.
The fluorescence intensity of each well was determined with the multi label fluorescence counter (LS-55 Luminescence spectrometer, Perkin Elmer) at an excitation wavelength of 450 nm (excitation slit width: 10 nm) and an emission wavelength of 482 nm (emission slit width: 10 nm), while adjusting counting time to 1 second. The control group was prepared by adding PBS solution, Aβ42 and DMSO, without adding the inventive compound. % Inhibition on the formation of beta-amyloid fibrils was calculated in accordance with the following equation and IC5O was calculated by using GraphPad Prism version 4.03 Program.
% Inhibition=[1−(C−D)/(A−B)]×100 Equation 1%
A (control group): fluorescence intensity in a group treated with PBS solution, Aβ42, and DMSO
B (blank): fluorescence intensity in a group treated with PBS solution and DMSO
C (experimental group): fluorescence intensity in a group treated with PBS solution, Aβ42, DMSO, and the inventive compound
D (compensation value to the experimental group): fluorescence intensity in a group treated with PBS solution, DMSO, and the inventive compound

Setting [1] is: 10 μM compound, Aβ42 25 μM, experiment of Table 5.
[2] abbreviates: 10 μM compound, Aβ42 25 μM, experiment of Table 3.
Where [3] appears, read: 10 μM compound, Aβ42 25 μM, experiment of Table 6.
[4] abbreviates: 10 μM compound, Aβ42 25 μM, experiment of Table 4.
The mark [5] stands for this setting: 10 μM compound, Aβ42 25 μM, experiment of Table 2.

pIC50: −log10 of the molar value. Counter-ions that a name gives are not always drawn. Like-named read-outs stand apart in the source and are kept apart here. Some results are limits rather than exact numbers.

T1 sequence (P05067 672-713 limits assumed): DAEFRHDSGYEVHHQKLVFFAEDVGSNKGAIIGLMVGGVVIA

Regarding `CN(C)c1ccc(C=Cc2cc3cc(I)ccc3o2)cc1` [Compound 8, 5-iodo-2-(4-dimethylaminostyryl)benzofuran], the “% inhibition against the beta-amyloid 42 formation compared with curcumin” value (“% inhibition … with curcumin” for short) was “superior % inhibition”. In addition, where the note is “experiment of Table 1”, the pIC50 (commonly the IC50 on a negative log10 scale, so that one unit is a factor of ten) is 6.77. As to `CNc1ccc(C=Cc2cc3ccc(OCCOCCOCCF)cc3o2)cc1` [Compound 66, 6-(2-(2-(2-fluoroethoxy)ethoxy)ethoxy)-2-(4-methylaminostyryl)benzofuran], the inhibition (as a rule, the drop in the measured response relative to a control, in per cent) at 10 µM under setting [1] is 61.7%. On to “5-methyl-2-(aminostyryl)benzofuran trifluoroacetate [Compound 39]”, for which the “% Inhibition (10 μM)” value under setting [2] came out at 60.23%.

In turn, `CN(C)c1ccc(C=Cc2cc3cc(F)ccc3o2)cc1` [Compound 5, 5-fluoro-2-(4-dimethylaminostyryl)benzofuran] had a pIC50 (experiment of Table 1) of 5.70. `CNc1ccc(C=Cc2cc3cc(Cl)ccc3o2)cc1` [Compound 30, 5-chloro-2-(4-methylaminostyryl)benzofuran]: the “% inhibition … with curcumin” value was “superior % inhibition”. Besides, the inhibition at 10 µM under setting [3] came out at 68.4%. Further, the pIC50 (experiment of Table 6) is 5.66. For `COc1ccc(C=Cc2cc3cc(I)ccc3o2)cc1` [Compound 49, 5-iodo-2-(4-methoxystyryl)benzofuran], the inhibition at 10 µM under setting [4] was determined as 38%. The pIC50 (experiment of Table 4) was 4.77. `Nc1ccc(C=Cc2cc3cc(O)ccc3o2)cc1` [Compound 18, 5-hydroxy-2-(4-aminostyryl)benzofuran hydrochloride]: the pIC50 (experiment of Table 1) was 5.53. Same read-out and setting: with `CN(C)c1ccc(C=Cc2cc3ccc(O)cc3o2)cc1` [Compound 10, 6-hydroxy-2-(4-dimethylaminostyryl)benzofuran] the figure was 5.44. Consider `CCN(CC)c1ccc(C=Cc2cc3cc(O)ccc3o2)cc1` [Compound 56, 5-hydroxy-2-(4-diethylaminostyryl)benzofuran], for which the “% inhibition … with curcumin” value is “superior % inhibition”. Also, the inhibition at 10 µM under setting [5] was found to be 81.6%. The same molecule gave a pIC50 (experiment of Table 2) of 5.89. With `CNc1ccc(C=Cc2cc3cc(Cl)ccc3o2)cc1OC` [Compound 32, 5-chloro-2-(3-methoxy-4-methylaminostyryl)benzofuran], the inhibition at 10 µM under setting [1] worked out at 47.6%. Take `Nc1ccc(C=Cc2cc3ccccc3o2)cc1` [Compound 24, 2-(4-aminostyryl)benzofuran trifluoroacetate]: the inhibition at 10 µM is 70.7%. Regarding `CN(C)c1ccc(/C=C/c2nc3ccccc3s2)cc1` [Comparative Example 2, 2-(4-dimethylaminophenylethenyl)benzothiazole, reference compound], under “10 μM compound, Aβ42 25 μM, experiment of Table 7”, the inhibition at 10 µM worked out at 25.7%. Under “experiment of Table 7”, this molecule gave a pIC50 of 4.50.

Take `CN(C)c1ccc(C=Cc2cc3ccc(I)cc3o2)cc1` [Compound 15, 6-iodo-2-(4-dimethylaminostyryl)benzofuran]: the negative logarithm of the IC50 (pIC50) (experiment of Table 1) is 5.55. Consider `CNc1ccc(C=Cc2cc3cc(OCCOCCF)ccc3o2)cc1` [Compound 44, 5-(2-(2-fluoroethoxy)ethoxy)-2-(4-methylaminostyryl)benzofuran], for which the “% inhibition … with curcumin” value was “superior % inhibition”. Further, the inhibition at 10 µM under setting [3] stood at 84.7%. The molecule further gave a pIC50 (experiment of Table 6) of 5.83.

On to `CN(C)c1ccc(C=Cc2cc3cc(Br)ccc3o2)cc1` [Compound 7, 5-bromo-2-(4-dimethylaminostyryl)benzofuran], for which the “% inhibition … with curcumin” value was “superior % inhibition”. Under “experiment of Table 1”, this molecule had a negative-log IC50 (pIC50) of 6.33.

Take `CN(C)c1ccc(C=Cc2cc3ccccc3o2)cc1` [Compound 1, 2-(4-dimethylaminostyryl)benzofuran]: under “experiment of Table 1”, the pIC50 is 5.64.

Regarding `COc1ccc(C=Cc2cc3cc(OC)c(OC)cc3o2)cc1` [Compound 54, 5,6-dimethoxy-2-(4-methoxystyryl)benzofuran], the “% inhibition … with curcumin” value is “superior % inhibition”. Moreover, the inhibition at 10 µM under setting [3] was 77.8%. Under “experiment of Table 6”, this molecule showed a pIC50 of 6.04. As to `Nc1ccc(C=Cc2cc3cc(Cl)ccc3o2)cc1` [Compound 29, 5-chloro-2-(4-aminostyryl)benzofuran], the inhibition at 10 µM under setting [4] stood at 82.8%. The molecule further showed a pIC50 (experiment of Table 4) of 5.70. As to `CNc1ccc(C=Cc2cc3cc(OC)c(OC)cc3o2)cc1` [Compound 70, 5,6-dimethoxy-2-(4-methylaminostyryl)benzofuran], the inhibition at 10 µM under setting [1] is 25.8%.

Consider `CNc1ccc(C=Cc2cc3cc(OC)ccc3o2)cc1OC` [Compound 36, 5-methoxy-2-(3-methoxy-4-methylaminostyryl)benzofuran], for which the inhibition at 10 µM under setting [1] was determined as 24.5%. On to `COc1ccc(C=Cc2cc3cc(OC)c(OC)cc3o2)cc1OC` [Compound 55, 5,6-dimethoxy-2-(3,4-dimethoxystyryl)benzofuran], for which the inhibition at 10 µM under setting [1] came out at 51.4%. With `Cc1ccc2cc(C=Cc3ccc(N)cc3)oc2c1` [Compound 61, 6-methyl-2-(4-aminostyryl)benzofuran trifluoroacetate], the inhibition at 10 µM under setting [2] turned out to be 57.5%.

Take `CCN(CC)c1ccc(C=Cc2cc3cc(OC)ccc3o2)cc1` [Compound 35, 5-methoxy-2-(4-diethylaminostyryl)benzofuran]: the inhibition at 10 µM under setting [5] was 55.1%. For the same molecule, under “experiment of Table 2”, the pIC50 was 5.93. Turning to `COc1ccc2cc(C=Cc3ccc(N(C)C)c(OC)c3)oc2c1` [Compound 23, 6-methoxy-2-(3-methoxy-4-dimethylaminostyryl)benzofuran], the “% inhibition … with curcumin” value is listed as “superior % inhibition”. Where the note is “experiment of Table 1”, this molecule had a pIC50 of 6.28. Turning to `COc1ccc2oc(C=Cc3ccc(N)cc3)cc2c1` [Compound 16, 5-methoxy-2-(4-aminostyryl)benzofuran], where the note is “experiment of Table 1”, the pIC50 was 6.09. As for `COc1cc2cc(C=Cc3ccc(N(C)C)cc3)oc2cc1OC` [Compound 51, 5,6-dimethoxy-2-(4-dimethylaminostyryl)benzofuran], the inhibition at 10 µM under setting [1] worked out at 29.2%.

Take `COc1ccc(C=Cc2cc3ccccc3o2)cc1` [Compound 27, 2-(4-methoxystyryl)benzofuran]: the inhibition at 10 µM under setting [2] was 58.3%.

Turning to `CNc1ccc(C=Cc2cc3cc(C)ccc3o2)cc1` [Compound 40, 5-methyl-2-(4-methylaminostyryl)benzofuran trifluoroacetate], the inhibition at 10 µM by setting is: under setting [2], 70.2%; under setting [3], 73.5%. This molecule also had a pIC50 (experiment of Table 6) of 5.30.

On to `CN(C)c1ccc(C=Cc2cc3ccc(Br)cc3o2)cc1` [Compound 14, 6-bromo-2-(4-dimethylaminostyryl)benzofuran], for which the pIC50 (experiment of Table 1) is 5.87. `CNc1ccc(C=Cc2cc3ccc(C)cc3o2)cc1` [Compound 62, 6-methyl-2-(4-methylaminostyryl)benzofuran trifluoroacetate]: the inhibition at 10 µM under setting [2] worked out at 46.5%. `COc1ccc(C=Cc2cc3ccc(C)cc3o2)cc1OC` [Compound 65, 6-methyl-2-(3,4-dimethoxystyryl)benzofuran]: the “% inhibition … with curcumin” value was “superior % inhibition”. Under setting [1], the inhibition at 10 µM was 67.5%. This molecule also showed a pIC50 (experiment of Table 5) of 6.05. Regarding `COc1ccc(C=Cc2cc3cc(Cl)ccc3o2)cc1` [Compound 33, 5-chloro-2-(4-methoxystyryl)benzofuran], the inhibition at 10 µM under setting [5] came to 51.8%. Moreover, the pIC50 (experiment of Table 2) is less than 4.00.

With `COc1ccc(C=Cc2cc3ccccc3o2)cc1OC` [Compound 28, 2-(3,4-dimethoxystyryl)benzofuran], under setting [1], the inhibition at 10 µM turned out to be 67.4%. Moreover, under “experiment of Table 5”, the negative-log IC50 (pIC50) was 5.48. `CN(C)c1ccc(C=Cc2cc3cc(Cl)ccc3o2)cc1` [Compound 6, 5-chloro-2-(4-dimethylaminostyryl)benzofuran]: the “% inhibition … with curcumin” value was “superior % inhibition”. The pIC50 (experiment of Table 1) was 6.70.

As to `COc1ccc(C=Cc2cc3cc(OC)ccc3o2)cc1` [Compound 37, 5-methoxy-2-(4-methoxystyryl)benzofuran], the “% inhibition … with curcumin” value is reported as “superior % inhibition”. Besides, under setting [5], the inhibition at 10 µM is 67.9%. Further, where the note is “experiment of Table 2”, the pIC50 was 6.15.
